Data: article PMC8550792, “Evolution of kinase polypharmacology across HSP90 drug discovery” (Cell Chemical Biology, 2021)
Read-outs that look alike come from different tables or passages of the source.

Tests used:
16-kinase panel = 16-kinase panel screening, in vitro radiometric assay; assay type: biochemical, human; details: 10 μM
LCK = target: T1, LCK (Homo sapiens, UniProt P06239); assay: HotSpot in vitro kinase radiometric assay; assay type: biochemical; details: 10uM, ATP 15 uM, Data 1, Data 2
T1 construct: purchased Reaction Biology (HotSpot contract assay)

TRKC = target: T2, TRKC (Homo sapiens, UniProt Q16288); assay: HotSpot in vitro kinase radiometric assay; assay type: biochemical; details: 10uM, ATP 100 uM, Data 1, Data 2
T2 construct: purchased Reaction Biology (HotSpot contract assay)
T2 sequence (Q16288 32-839): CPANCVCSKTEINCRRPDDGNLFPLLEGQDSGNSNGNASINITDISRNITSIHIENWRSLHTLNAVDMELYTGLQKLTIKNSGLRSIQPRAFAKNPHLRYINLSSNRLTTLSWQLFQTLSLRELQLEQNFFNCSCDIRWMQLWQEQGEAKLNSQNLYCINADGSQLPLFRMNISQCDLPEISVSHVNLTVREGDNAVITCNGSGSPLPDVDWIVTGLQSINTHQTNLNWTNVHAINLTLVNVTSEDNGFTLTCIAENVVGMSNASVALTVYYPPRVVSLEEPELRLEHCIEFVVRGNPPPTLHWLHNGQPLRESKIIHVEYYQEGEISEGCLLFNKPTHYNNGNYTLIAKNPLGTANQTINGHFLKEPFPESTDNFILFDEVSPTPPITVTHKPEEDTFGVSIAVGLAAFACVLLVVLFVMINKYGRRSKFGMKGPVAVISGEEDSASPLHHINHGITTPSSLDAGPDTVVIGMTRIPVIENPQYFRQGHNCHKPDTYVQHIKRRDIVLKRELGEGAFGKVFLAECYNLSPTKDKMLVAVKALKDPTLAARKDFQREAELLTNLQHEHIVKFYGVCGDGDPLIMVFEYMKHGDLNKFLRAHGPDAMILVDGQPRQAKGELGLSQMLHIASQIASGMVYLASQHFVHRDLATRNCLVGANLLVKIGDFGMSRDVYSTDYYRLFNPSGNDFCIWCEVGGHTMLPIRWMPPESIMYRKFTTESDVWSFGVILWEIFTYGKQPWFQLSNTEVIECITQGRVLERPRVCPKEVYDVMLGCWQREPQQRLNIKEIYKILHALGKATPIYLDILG

FGR = target: T3, FGR (Homo sapiens, UniProt P09769); assay: HotSpot in vitro kinase radiometric assay; assay type: biochemical; details: 10uM, ATP 50 uM, Data 1, Data 2
T3 construct: purchased Reaction Biology (HotSpot contract assay)
T3 sequence (P09769 whole entry): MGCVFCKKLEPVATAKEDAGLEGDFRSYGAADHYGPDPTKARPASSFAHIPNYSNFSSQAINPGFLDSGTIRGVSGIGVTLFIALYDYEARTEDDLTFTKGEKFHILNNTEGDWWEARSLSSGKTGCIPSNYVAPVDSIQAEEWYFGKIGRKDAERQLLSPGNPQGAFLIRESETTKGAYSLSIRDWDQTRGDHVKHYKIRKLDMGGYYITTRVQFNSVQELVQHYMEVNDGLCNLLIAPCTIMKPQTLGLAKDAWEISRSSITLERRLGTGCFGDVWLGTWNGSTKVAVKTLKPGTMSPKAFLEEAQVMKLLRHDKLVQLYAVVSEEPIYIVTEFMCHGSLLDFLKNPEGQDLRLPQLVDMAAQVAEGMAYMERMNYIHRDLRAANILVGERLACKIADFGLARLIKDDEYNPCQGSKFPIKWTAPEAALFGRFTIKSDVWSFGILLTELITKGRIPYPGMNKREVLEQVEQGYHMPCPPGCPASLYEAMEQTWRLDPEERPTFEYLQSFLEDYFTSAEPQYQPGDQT

HSP90AB1 = tested on: HSP90AB1; set-up: method as in ChEMBL23 (accessed: 23/08/2018); details: average of reported values; ref ChEMBL23 (accessed: 23/08/2018); cited from earlier work
ABL1 = ABL1 (Homo sapiens, UniProt P00519); assay: HotSpot in vitro kinase radiometric assay; assay type: biochemical; set-up: purchased Reaction Biology (HotSpot contract assay); details: 10uM, ATP 40 uM, Data 1, Data 2
TRAP1 = tested on: TRAP1; set-up: method as in ChEMBL23 (accessed: 23/08/2018); details: average of reported values; ref ChEMBL23 (accessed: 23/08/2018); cited from earlier work
LYN B = target: T4, LYN B (Homo sapiens, UniProt P07948); assay: HotSpot in vitro kinase radiometric assay; assay type: biochemical; details: 10uM, ATP 20 uM, Data 1, Data 2
T4 construct: purchased Reaction Biology (HotSpot contract assay)
T4 sequence (P07948 1-491 isoform P07948-2): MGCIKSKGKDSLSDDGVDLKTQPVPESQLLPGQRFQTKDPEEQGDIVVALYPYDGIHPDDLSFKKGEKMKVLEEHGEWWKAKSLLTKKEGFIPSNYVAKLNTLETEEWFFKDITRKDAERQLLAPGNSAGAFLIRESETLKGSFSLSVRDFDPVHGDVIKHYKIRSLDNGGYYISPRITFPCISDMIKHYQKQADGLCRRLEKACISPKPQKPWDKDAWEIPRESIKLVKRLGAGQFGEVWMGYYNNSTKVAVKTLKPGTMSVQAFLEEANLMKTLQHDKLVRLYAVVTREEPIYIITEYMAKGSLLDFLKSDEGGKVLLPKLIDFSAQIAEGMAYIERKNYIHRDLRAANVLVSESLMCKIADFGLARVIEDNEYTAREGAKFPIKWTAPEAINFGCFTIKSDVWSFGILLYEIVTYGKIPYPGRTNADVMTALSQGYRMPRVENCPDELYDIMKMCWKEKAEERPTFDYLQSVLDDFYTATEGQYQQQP
Method: (§1) Accordingly, we selected five additional representative HSP90 inhibitors, at least one from each chemical class, including both synthetic inhibitors and natural products. […]
(§2) This radioisotope binding assay was designed to directly detect the true product without the use of modified substrates, coupling enzymes, or detection antibodies thus enabling to directly measure inhibition of catalytic activity. Test or control compounds were incubated with kinase, substrate, cofactors, and radioisotope-labeled ATP (32P-ɣ-ATP or 33P-ɣ-ATP). The reaction mixtures were then spotted onto filter papers, which bind the radioisotope-labeled catalytic product.

PDK4/PDKH4 = target: T5, PDK4/PDKH4 (Homo sapiens, UniProt Q16654); assay: HotSpot in vitro kinase radiometric assay; assay type: biochemical; details: 10uM, ATP 30 uM, Data 1, Data 2
T5 construct: purchased Reaction Biology (HotSpot contract assay)
Method: as §1, §2

BLK = target: T6, BLK (Homo sapiens, UniProt P51451); assay: HotSpot in vitro kinase radiometric assay; assay type: biochemical; details: 10uM, ATP 10 uM, Data 1, Data 2
T6 construct: purchased Reaction Biology (HotSpot contract assay)
Method: as §1, §2

c-Src = target: T7, c-Src (Homo sapiens, UniProt P12931); assay: HotSpot in vitro kinase radiometric assay; assay type: biochemical; details: 10uM, ATP 15 uM, Data 1, Data 2
T7 construct: purchased Reaction Biology (HotSpot contract assay)
T7 sequence (P12931 whole entry): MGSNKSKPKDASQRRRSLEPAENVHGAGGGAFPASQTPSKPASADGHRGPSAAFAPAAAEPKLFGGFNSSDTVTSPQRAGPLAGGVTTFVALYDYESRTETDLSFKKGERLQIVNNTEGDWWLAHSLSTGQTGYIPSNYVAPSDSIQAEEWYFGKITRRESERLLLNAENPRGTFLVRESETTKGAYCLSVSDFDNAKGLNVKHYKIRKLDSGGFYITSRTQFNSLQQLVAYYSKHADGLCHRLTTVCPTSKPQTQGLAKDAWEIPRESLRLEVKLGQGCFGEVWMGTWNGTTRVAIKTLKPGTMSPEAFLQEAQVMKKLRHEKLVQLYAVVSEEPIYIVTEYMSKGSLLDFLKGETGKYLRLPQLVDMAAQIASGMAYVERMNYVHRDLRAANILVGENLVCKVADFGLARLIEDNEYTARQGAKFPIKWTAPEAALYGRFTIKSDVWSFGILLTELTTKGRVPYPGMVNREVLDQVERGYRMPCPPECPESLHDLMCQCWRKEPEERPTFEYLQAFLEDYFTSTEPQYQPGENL
Method: as §1, §2

DDR1 = DDR1 (Homo sapiens, UniProt Q08345); assay: HotSpot in vitro kinase radiometric assay; assay type: biochemical; set-up: purchased Reaction Biology (HotSpot contract assay); details: 10uM, ATP 100 uM, Data 1, Data 2
ABL2/ARG = target: T8, ABL2/ARG (Homo sapiens, UniProt P42684); assay: HotSpot in vitro kinase radiometric assay; assay type: biochemical; details: 10uM, ATP 30 uM, Data 1, Data 2
T8 construct: purchased Reaction Biology (HotSpot contract assay)
T8 sequence (P42684 whole entry): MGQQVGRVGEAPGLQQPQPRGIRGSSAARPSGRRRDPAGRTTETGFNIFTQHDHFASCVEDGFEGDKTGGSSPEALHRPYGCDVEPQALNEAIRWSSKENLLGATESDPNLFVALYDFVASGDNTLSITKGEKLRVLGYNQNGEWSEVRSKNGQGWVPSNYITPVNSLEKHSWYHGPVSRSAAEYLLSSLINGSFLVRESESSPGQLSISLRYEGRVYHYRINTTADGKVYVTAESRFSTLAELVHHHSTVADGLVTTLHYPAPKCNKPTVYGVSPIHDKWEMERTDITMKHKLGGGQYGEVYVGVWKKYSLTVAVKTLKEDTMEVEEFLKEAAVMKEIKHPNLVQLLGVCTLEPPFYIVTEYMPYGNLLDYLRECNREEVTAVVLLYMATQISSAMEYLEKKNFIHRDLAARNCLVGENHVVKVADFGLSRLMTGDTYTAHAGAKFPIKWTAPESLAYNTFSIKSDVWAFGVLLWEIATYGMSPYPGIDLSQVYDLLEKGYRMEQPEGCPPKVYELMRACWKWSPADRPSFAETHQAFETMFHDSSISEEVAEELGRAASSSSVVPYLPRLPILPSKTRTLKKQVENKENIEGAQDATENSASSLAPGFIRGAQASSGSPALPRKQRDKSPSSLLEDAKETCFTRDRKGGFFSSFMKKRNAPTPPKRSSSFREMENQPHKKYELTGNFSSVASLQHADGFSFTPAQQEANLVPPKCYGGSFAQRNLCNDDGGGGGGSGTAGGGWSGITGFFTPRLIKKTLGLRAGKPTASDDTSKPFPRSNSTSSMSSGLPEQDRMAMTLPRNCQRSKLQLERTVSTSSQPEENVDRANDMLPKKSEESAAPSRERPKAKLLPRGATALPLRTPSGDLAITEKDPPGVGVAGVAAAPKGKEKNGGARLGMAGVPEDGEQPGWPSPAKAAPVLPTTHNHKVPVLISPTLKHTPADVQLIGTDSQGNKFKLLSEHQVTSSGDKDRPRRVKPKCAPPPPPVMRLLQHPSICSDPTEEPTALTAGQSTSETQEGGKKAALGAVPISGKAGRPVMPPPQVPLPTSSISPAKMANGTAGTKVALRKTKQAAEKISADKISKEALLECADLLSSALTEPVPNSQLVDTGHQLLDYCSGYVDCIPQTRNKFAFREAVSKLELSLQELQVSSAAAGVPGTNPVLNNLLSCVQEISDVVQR

FYN = target: T9, FYN (Homo sapiens, UniProt P06241); assay: HotSpot in vitro kinase radiometric assay; assay type: biochemical; details: 10uM, ATP 30 uM, Data 1, Data 2
T9 construct: purchased Reaction Biology (HotSpot contract assay)

TRKA = target: T10, TRKA (Homo sapiens, UniProt P04629); assay: HotSpot in vitro kinase radiometric assay; assay type: biochemical; details: 10uM, ATP 100 uM, Data 1, Data 2
T10 construct: purchased Reaction Biology (HotSpot contract assay)
T10 sequence (P04629 33-796): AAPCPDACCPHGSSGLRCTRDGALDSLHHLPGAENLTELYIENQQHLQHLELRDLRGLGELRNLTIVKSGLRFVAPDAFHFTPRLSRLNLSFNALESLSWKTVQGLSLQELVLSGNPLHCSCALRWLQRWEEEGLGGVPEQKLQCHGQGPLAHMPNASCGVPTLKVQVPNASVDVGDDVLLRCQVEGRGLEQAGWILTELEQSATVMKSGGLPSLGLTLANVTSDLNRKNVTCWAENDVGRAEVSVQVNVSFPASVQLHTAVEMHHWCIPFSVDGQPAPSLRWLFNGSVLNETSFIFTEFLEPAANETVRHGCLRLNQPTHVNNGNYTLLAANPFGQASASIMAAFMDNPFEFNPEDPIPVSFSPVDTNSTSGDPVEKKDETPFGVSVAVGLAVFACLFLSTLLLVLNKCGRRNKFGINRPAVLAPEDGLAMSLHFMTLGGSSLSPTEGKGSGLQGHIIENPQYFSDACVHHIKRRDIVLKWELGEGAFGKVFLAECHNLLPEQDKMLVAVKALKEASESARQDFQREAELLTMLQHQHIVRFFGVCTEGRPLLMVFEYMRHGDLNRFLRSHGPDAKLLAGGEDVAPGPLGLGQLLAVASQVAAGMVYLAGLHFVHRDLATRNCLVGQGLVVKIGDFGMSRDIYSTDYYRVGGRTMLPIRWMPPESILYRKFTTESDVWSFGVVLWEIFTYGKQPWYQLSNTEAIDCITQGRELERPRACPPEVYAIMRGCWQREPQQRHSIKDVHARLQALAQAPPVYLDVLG
Description: (§3) Accordingly, we selected five additional representative HSP90 inhibitors, at least one from each chemical class, including both synthetic inhibitors and natural products.
(§4) Accordingly, we screened the hit compound and the two leads for kinase off-target inhibition using the 16-kinase panel and the same in vitro catalytic assay used previously.
as §2

PASK = target: T11, PASK (Homo sapiens, UniProt Q96RG2); assay: HotSpot in vitro kinase radiometric assay; assay type: biochemical; details: 10uM, ATP 50 uM, Data 1, Data 2
T11 construct: purchased Reaction Biology (HotSpot contract assay)
Description: as §3, §4, §2

PEAK1 = target: T12, PEAK1 (Homo sapiens, UniProt Q9H792); assay: HotSpot in vitro kinase radiometric assay; assay type: biochemical; details: 10uM, ATP 30 uM, Data 1, Data 2
T12 construct: purchased Reaction Biology (HotSpot contract assay)

YES/YES1 = target: T13, YES/YES1 (Homo sapiens, UniProt P07947); assay: HotSpot in vitro kinase radiometric assay; assay type: biochemical; details: 10uM, ATP 50 uM, Data 1, Data 2
T13 construct: purchased Reaction Biology (HotSpot contract assay)
T13 sequence (P07947 whole entry): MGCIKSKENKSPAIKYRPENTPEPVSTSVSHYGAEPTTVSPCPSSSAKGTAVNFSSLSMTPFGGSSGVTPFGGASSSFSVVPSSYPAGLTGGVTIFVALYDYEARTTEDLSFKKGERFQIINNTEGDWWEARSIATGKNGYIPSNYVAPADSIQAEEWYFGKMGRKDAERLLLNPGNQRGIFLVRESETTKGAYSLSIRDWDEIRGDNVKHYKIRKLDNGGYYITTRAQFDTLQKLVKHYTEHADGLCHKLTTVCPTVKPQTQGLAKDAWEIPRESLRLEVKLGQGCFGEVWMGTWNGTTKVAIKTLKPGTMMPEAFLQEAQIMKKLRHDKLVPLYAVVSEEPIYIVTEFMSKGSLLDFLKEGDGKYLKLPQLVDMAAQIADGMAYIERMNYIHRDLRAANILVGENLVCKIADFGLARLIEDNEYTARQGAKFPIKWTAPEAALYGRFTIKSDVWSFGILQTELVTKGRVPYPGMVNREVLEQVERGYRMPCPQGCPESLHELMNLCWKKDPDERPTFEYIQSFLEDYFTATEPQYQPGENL

PDK2/PDHK2 = target: T14, PDK2/PDHK2 (Homo sapiens, UniProt Q15119); assay: HotSpot in vitro kinase radiometric assay; assay type: biochemical; details: PDK2/PDHK2, 10uM, ATP 15 uM, Data 1, Data 2
T14 construct: purchased Reaction Biology (HotSpot contract assay)
Method: as §1, §2

382 unique human kinases = assay: biochemical; assay type: biochemical; details: cutoff of >85% inhibition at 10 μM; luminespib and ganetespib large kinome panel, others 16-kinase panel
[1] = LCK, read-out: % Enzyme Activity (relative to DMSO controls)
[2] = TRKC, read-out: % Enzyme Activity (relative to DMSO controls)
[3] = FGR, read-out: % Enzyme Activity (relative to DMSO controls)
[4] = ABL1, read-out: % Enzyme Activity (relative to DMSO controls)
[5] = LYN B, read-out: % Enzyme Activity (relative to DMSO controls)
[6] = PDK4/PDKH4, read-out: % Enzyme Activity (relative to DMSO controls)
[7] = BLK, read-out: % Enzyme Activity (relative to DMSO controls)
[8] = c-Src, read-out: % Enzyme Activity (relative to DMSO controls)
[9] = DDR1, read-out: % Enzyme Activity (relative to DMSO controls)
[10] = ABL2/ARG, read-out: % Enzyme Activity (relative to DMSO controls)
[11] = FYN, read-out: % Enzyme Activity (relative to DMSO controls)
[12] = TRKA, read-out: % Enzyme Activity (relative to DMSO controls)
[13] = PASK, read-out: % Enzyme Activity (relative to DMSO controls)
[14] = PEAK1, read-out: % Enzyme Activity (relative to DMSO controls)
[15] = YES/YES1, read-out: % Enzyme Activity (relative to DMSO controls)

Row | Compound | activity against the 16-kinase panel (16-kinase panel) | remaining activity at 10 µM (LCK; [1]) | remaining activity at 10 µM (TRKC; [2]) | remaining activity at 10 µM (FGR; [3]) | pActivity, HSP90AB1 (HSP90AB1) | remaining activity at 10 µM (ABL1; [4]) | pActivity, TRAP1 (TRAP1) | remaining activity at 10 µM (LYN B; [5]) | remaining activity at 10 µM (PDK4/PDKH4; [6]) | remaining activity at 10 µM (BLK; [7]) | remaining activity at 10 µM (c-Src; [8]) | remaining activity at 10 µM (DDR1; [9]) | remaining activity at 10 µM (ABL2/ARG; [10]) | remaining activity at 10 µM (FYN; [11]) | remaining activity at 10 µM (TRKA; [12]) | remaining activity at 10 µM (PASK; [13]) | remaining activity at 10 µM (PEAK1; [14]) | remaining activity at 10 µM (YES/YES1; [15]) | number of off-target kinases experimentally identified, In vitro binding (KinomeSCAN) (382 unique human kinases) | further results
1 | COC1=C2C[C@@H](C)C[C@H](OC)[C@H](O)[C@@H](C)/C=C(\C)[C@H](OC(N)=O)[C@@H](OC)/C=C\C=C(/C)C(=O)NC(=CC1=O)C2=O [Geldanamycin] | inactive | 125% | 99.5% | 113% | 6.99 | 100% | 6.18 | 111% | 100% | 121% | 110% | 104% | 115% | 121% | 104% | 106% | 108% | 103% | – | –
2 | CC(C)c1cc(C(=O)N2Cc3ccc(CN4CCN(C)CC4)cc3C2)c(O)cc1O [Onalespib] | inactive | 100% | 93% | 102% | 6.99 | 105% | – | 110% | 96.5% | 108% | 98.7% | 106% | 105% | 108% | 105% | 100% | 104% | 99.6% | 0 | % Enzyme Activity (relative to DMSO controls) (LCK; LCK): 100%; % Enzyme Activity (relative to DMSO controls) (TRKC; TRKC): 89.51%; % Enzyme Activity (relative to DMSO controls) (FGR; FGR): 101.62%; % Enzyme Activity (relative to DMSO controls) (ABL1; ABL1): 103.3%; % Enzyme Activity (relative to DMSO controls) (LYN B; LYN B): 109.85%; % Enzyme Activity (relative to DMSO controls) (PDK4/PDKH4; PDK4/PDKH4): 96.17%; % Enzyme Activity (relative to DMSO controls) (BLK; BLK): 107.96%; % Enzyme Activity (relative to DMSO controls) (c-Src; c-Src): 97.5%; % Enzyme Activity (relative to DMSO controls) (PDK2/PDHK2): 75.57%; remaining activity at 10 µM (PDK2/PDHK2; read-out: % Enzyme Activity (relative to DMSO controls)): 79.6%; % Enzyme Activity (relative to DMSO controls) (DDR1; DDR1): 87.99%; % Enzyme Activity (relative to DMSO controls) (ABL2/ARG; ABL2/ARG): 104.31%; % Enzyme Activity (relative to DMSO controls) (FYN; FYN): 106.38%; % Enzyme Activity (relative to DMSO controls) (TRKA; TRKA): 99.91%; % Enzyme Activity (relative to DMSO controls) (PASK; PASK): 105.18%; % Enzyme Activity (relative to DMSO controls) (PEAK1; PEAK1): 102.81%; % Enzyme Activity (relative to DMSO controls) (YES/YES1; YES/YES1): 99.53%
3 | CC1(C)CC(=O)c2c(C(F)(F)F)nn(-c3ccc(C(N)=O)c(N[C@H]4CC[C@H](O)CC4)c3)c2C1 [SNX-2112] | inactive | – | – | – | 8.34 | – | 6.12 | – | – | – | – | – | – | – | – | – | – | – | 0 | remaining activity at 10 µM (LCK; read-out: % Enzyme Activity (relative to DMSO controls), LCK): 114%; remaining activity at 10 µM (TRKC; read-out: % Enzyme Activity (relative to DMSO controls), TRKC): 93%; remaining activity at 10 µM (FGR; read-out: % Enzyme Activity (relative to DMSO controls), FGR): 111%; remaining activity at 10 µM (ABL1; read-out: % Enzyme Activity (relative to DMSO controls), ABL1): 109%; remaining activity at 10 µM (LYN B; read-out: % Enzyme Activity (relative to DMSO controls), LYN B): 107%; remaining activity at 10 µM (PDK4/PDKH4; read-out: % Enzyme Activity (relative to DMSO controls), PDK4/PDKH4): 94.8%; remaining activity at 10 µM (BLK; read-out: % Enzyme Activity (relative to DMSO controls), BLK): 116%; remaining activity at 10 µM (c-Src; read-out: % Enzyme Activity (relative to DMSO controls), c-Src): 99%; remaining activity at 10 µM (DDR1; read-out: % Enzyme Activity (relative to DMSO controls), DDR1): 93.4%; remaining activity at 10 µM (ABL2/ARG; read-out: % Enzyme Activity (relative to DMSO controls), ABL2/ARG): 114%; remaining activity at 10 µM (FYN; read-out: % Enzyme Activity (relative to DMSO controls), FYN): 113%; remaining activity at 10 µM (TRKA; read-out: % Enzyme Activity (relative to DMSO controls), TRKA): 107%; remaining activity at 10 µM (PASK; read-out: % Enzyme Activity (relative to DMSO controls), PASK): 101%; remaining activity at 10 µM (PEAK1; read-out: % Enzyme Activity (relative to DMSO controls), PEAK1): 105%; remaining activity at 10 µM (YES/YES1; read-out: % Enzyme Activity (relative to DMSO controls), YES/YES1): 101%
